From ChEMBL document CHEMBL1201862, “PubChem BioAssay data set” (2004) come the findings set out here.

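Compound exposure: 48 hours, 5 concentrations, 96-well plates. Here, GI50 denotes the concentration required for 50% inhibition of growth.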 The source made the active and inactive calls. Rule as the data show it: active = GI50 up to about 1.1 µM and inactive = higher.

Holding throughout (test): NCI-60 cell line screen, 48 h
Assay [1] deals with EKVX.
Assay [2] concerns HCC 2998.
The subject of assay [3] is HCT-116.
Assay [4] deals with HOP-62.
The subject of assay [5] is KM12.
Assay [6] has as its system NCI-H226.
Assay [7] has as its system NCI-H460.
Assay [8] concerns NCI-H522.
Assay [9] has as its system OVCAR-4.
The subject of assay [10] is OVCAR-5.
Assay [11] relates to RPMI-8226.
Assay [12] relates to RXF 393.
Assay [13] concerns SK-MEL-5.
Assay [14] deals with SK-OV-3.
The subject of assay [15] is SW-620.
The test system of assay [16] is U-251.
Assay [17] has as its system UACC-257.
Assay [18] deals with UO-31.
The test system of assay [19] is ACHN.
Assay [20] relates to TK-10.

`CSc1nc2c(ncn2C2OCC(O)C(O)C2O)c(=O)[nH]1` (configuration not stated): the GI50 in assay [1], in [2], in assay [3], in assay [4], in [5] and in assay [6] was > 100 µM (inactive) throughout. Further, the GI50 in assay [7], in assay [8], in [9], in [10], in assay [11] and in assay [12] was > 100 µM (inactive) in each case. Besides, the GI50 in assay [13], in assay [14], in assay [15], in assay [16], in [17] and in assay [18] was > 100 µM (inactive) throughout.

Consider `CN(C(=O)c1ccccc1)c1ccc2c(c1)C(=O)c1ccccc1C2=O`, for which the GI50 in assay [19], in [1], in [2], in [3], in assay [4] and in assay [5] was > 100 µM (inactive) each time. In addition, the GI50 in [6], in assay [7], in assay [8], in [9], in assay [10] and in [11] was > 100 µM (inactive) throughout. Also, the GI50 in [12], in assay [14], in [15], in assay [20], in assay [16] and in [17] was > 100 µM (inactive) throughout. Moreover, the GI50 in assay [18] was > 100 µM (inactive).

With `Cc1ccc(NP(=O)(Oc2ccccc2)N(CCCl)CCCl)cc1` (configuration not stated), the GI50 in assay [19] is 34.6 µM (inactive); in [1] it was > 100 µM (inactive); in assay [2], 3.56 µM (inactive); in assay [3], 21.2 µM (inactive); in assay [4], > 100 µM (inactive); in [5] it was 91 µM (inactive). In addition, the GI50 in assay [6] was 39.6 µM (inactive); in assay [8], > 100 µM (inactive); in assay [9], 51.3 µM (inactive); in [10], 39.3 µM (inactive); in [11], 5.5 µM (inactive); in assay [13], 74.5 µM (inactive). Moreover, the GI50 in [14] was > 100 µM (inactive); in [15] it was > 100 µM (inactive); in assay [20] it was > 100 µM (inactive); in assay [16], > 100 µM (inactive); in [17], 28.6 µM (inactive); in [18], 76.4 µM (inactive).

For the molecule `O=C(O)/C=C/c1nc2ccccc2c(=O)o1`, the GI50 in [19], in assay [1], in assay [2], in assay [3], in assay [5] and in assay [6] was > 100 µM (inactive) in each case. The GI50 in assay [8], in assay [9], in assay [11], in assay [13], in assay [14] and in assay [15] was > 100 µM (inactive) throughout. Also, the GI50 in assay [20], in assay [16] and in assay [18] was > 100 µM (inactive) in each case.

Turning to `COc1cc(C2C(Cl)C(=O)N2NC(=O)c2ccccc2O)ccc1O` (configuration not stated), the GI50 in assay [19], in [2], in [3], in [5], in assay [6] and in assay [7] was > 100 µM (inactive) throughout. Also, the GI50 was > 100 µM (inactive) in assay [8]; 0.0612 µM (active) in assay [12]; > 100 µM (inactive) in assay [13]; > 100 µM (inactive) in assay [14]; > 100 µM (inactive) in assay [20]; > 100 µM (inactive) in assay [16]. In addition, the GI50 in assay [17] and in assay [18] was > 100 µM (inactive) each time.

On to `COc1cc(CNc2nc3cc(C(F)(F)F)ccc3nc2-c2ccccc2)cc(OC)c1OC`, for which the GI50 is 16.7 µM (inactive) in assay [19]; 10.9 µM (inactive) in assay [1]; 19.8 µM (inactive) in [2]; 19.1 µM (inactive) in [3]; 43.5 µM (inactive) in assay [4]; 14.8 µM (inactive) in [5]. Moreover, the GI50 in assay [6] was 32.3 µM (inactive); in assay [7], 25.4 µM (inactive); in assay [8] it was 22.3 µM (inactive); in assay [11], 25.6 µM (inactive); in assay [12], 10.6 µM (inactive); in [13], 25.2 µM (inactive). The GI50 in assay [15] is 39.2 µM (inactive); in assay [20], > 100 µM (inactive); in assay [16] it was 27 µM (inactive); in assay [17], 33.6 µM (inactive); in [18], 31.6 µM (inactive).

For `O=C(CCl)NNC1=Nc2ccc(Cl)cc2SC1`, the GI50 is 2.07 µM (inactive) in assay [1]; 5.4 µM (inactive) in assay [2]; 1.64 µM (inactive) in assay [3]; 17.7 µM (inactive) in assay [4]; 5.02 µM (inactive) in assay [5]; 2.61 µM (inactive) in assay [6]. Moreover, the GI50 in [7] is 6.79 µM (inactive); in assay [8], 0.553 µM (active); in assay [9] it was 2.12 µM (inactive); in assay [10], 2.26 µM (inactive); in assay [11] it was 1.86 µM (inactive); in assay [12], 1.9 µM (inactive). For the same molecule, the GI50 in [13] was 2.36 µM (inactive); in assay [14], 6.61 µM (inactive); in [15], 2.04 µM (inactive); in [16], 2.15 µM (inactive); in [17] it was 3.23 µM (inactive); in assay [18], 1.86 µM (inactive).

As for `Cc1cc(C)c(S(=O)(=O)N(CCCCCN)OCCCN)c(C)c1`, the GI50 in assay [19] is 19.5 µM (inactive); in assay [1], 15.9 µM (inactive); in assay [2] it was 7.14 µM (inactive); in assay [3], 17.9 µM (inactive); in [4], 16.5 µM (inactive); in assay [5], 19 µM (inactive). Moreover, the GI50 in assay [6] was 14.8 µM (inactive); in assay [7], 16.8 µM (inactive); in assay [9], 21.5 µM (inactive); in assay [10], 17.9 µM (inactive); in assay [11] it was 11.7 µM (inactive); in assay [12], 10.3 µM (inactive). Besides, the GI50 is 16.3 µM (inactive) in assay [13]; 19 µM (inactive) in assay [15]; 17 µM (inactive) in assay [20]; 18.3 µM (inactive) in assay [16]; 17.1 µM (inactive) in assay [17]; 14.1 µM (inactive) in assay [18].

Regarding `COc1ccc(N2C(Cl)C(=O)C2c2c[nH]c3ccccc23)cc1` (configuration not stated), the GI50 in assay [1], in assay [3], in assay [4], in assay [5], in assay [7] and in [8] was > 100 µM (inactive) each time. For the same molecule, the GI50 was > 100 µM (inactive) in assay [9]; 80.9 µM (inactive) in assay [10]; > 100 µM (inactive) in assay [11]; > 100 µM (inactive) in [12]; > 100 µM (inactive) in assay [13]; > 100 µM (inactive) in assay [14]. Further, the GI50 is > 100 µM (inactive) in assay [15]; > 100 µM (inactive) in assay [20]; > 100 µM (inactive) in assay [16]; > 100 µM (inactive) in assay [17]; 51.9 µM (inactive) in [18].

Turning to `COC(Cc1cc(C(O)(c2ccc(C(C)(C)C)cc2)c2cc(CC(OC)(c3cc(C(OC)(c4ccc(C(C)(C)C)cc4)c4ccc(C(C)(C)C)cc4)c(C)cc3C)c3cc(C(OC)(c4ccc(C(C)(C)C)cc4)c4ccc(C(C)(C)C)cc4)c(C)cc3C)c(C)cc2C)c(C)cc1C)(c1cc(C(OC)(c2ccc(C(C)(C)C)cc2)c2ccc(C(C)(C)C)cc2)c(C)cc1C)c1cc(C(OC)(c2ccc(C(C)(C)C)cc2)c2ccc(C(C)(C)C)cc2)c(C)cc1C`, the GI50 in [1], in assay [2], in [3], in assay [4], in [6] and in assay [7] was > 75 µM (inactive) throughout. Moreover, the GI50 in assay [9], in assay [10], in [12], in assay [13], in assay [14] and in [15] was > 75 µM (inactive) in each case. Also, the GI50 in assay [20], in [16], in assay [17] and in assay [18] was > 75 µM (inactive) in each case.

Take `CC(=O)c1c(-c2ccco2)c(C#N)c(=S)n(C2OC(CO)C(O)C(O)C2O)c1C` (configuration not stated): the GI50 is > 100 µM (inactive) in assay [19]; 82 µM (inactive) in [1]; > 100 µM (inactive) in [3]; > 100 µM (inactive) in assay [4]; > 100 µM (inactive) in [5]; > 100 µM (inactive) in assay [7]. Besides, the GI50 in assay [9] was 75 µM (inactive); in assay [10], > 100 µM (inactive); in [11], > 100 µM (inactive); in [12], > 100 µM (inactive); in [13], 60.3 µM (inactive); in [14] it was > 100 µM (inactive). Further, the GI50 in assay [15] was > 100 µM (inactive); in assay [20], > 100 µM (inactive); in assay [16], 51.1 µM (inactive); in assay [17], > 100 µM (inactive); in [18], 56.6 µM (inactive).
